One experiment has as its target DDR2 (Homo sapiens (Human), UniProt Q16832). Put plainly: DDR2 binding assay (LanthaScreen Europium Kinase Binding assay). On the procedure:
(§1) DDR1 and DDR2 binding assays were performed using Life Technologies LanthaScreen™ Europium Kinase Binding assay. The compounds were incubated with 5 nM DDR1 (Carna Biosciences) or 5 nM DDR2 (Life Technologies) for 1 h at rt in white 384-well OptiPlate (PerkinElmer), containing 20 nM or 10 nM Kinase Tracer 178 respectively and 2 nM Europium labelled anti-GST antibody (Life Technologies) in assay buffer (50 mM HEPES pH 7.5, 10 mM MgCI2, 1 mM EGTA and 0.01% BRIJ35). The ratio of fluorescence emission 665 nm/615 nm after excitation at 340 nm was obtained using the Tecan Spark 20M plate reader. IC50 values were determined in GraphPad Prism 7.0 software, using 4 parameter model: log(inhibitor) vs. response. IC50 values were converted in Ki using the Cheng-Prusoff equation (Ki=IC50/(1+[Tracer]/Kd).

The next experiment has as its target DDR1 (Homo sapiens (Human), UniProt Q08345). The experiment can be described thus: DDR1 binding assay (LanthaScreen Europium Kinase Binding assay). On the procedure: as §1
The mark [1] stands for this setting: 5 nM DDR2, 10 nM Kinase Tracer 178, 1 h at rt, Ki from IC50 by Cheng-Prusoff, read-out: Ki DDR2.
Setting [2] is: 5 nM DDR1, 20 nM Kinase Tracer 178, 1 h at rt, Ki from IC50 by Cheng-Prusoff, read-out: Ki DDR1.

Where two headings read alike, the source gives them in different places. A value given as a limit tells only on which side of the number the result lay.

Chain of DDR2 (Q16832 22-855): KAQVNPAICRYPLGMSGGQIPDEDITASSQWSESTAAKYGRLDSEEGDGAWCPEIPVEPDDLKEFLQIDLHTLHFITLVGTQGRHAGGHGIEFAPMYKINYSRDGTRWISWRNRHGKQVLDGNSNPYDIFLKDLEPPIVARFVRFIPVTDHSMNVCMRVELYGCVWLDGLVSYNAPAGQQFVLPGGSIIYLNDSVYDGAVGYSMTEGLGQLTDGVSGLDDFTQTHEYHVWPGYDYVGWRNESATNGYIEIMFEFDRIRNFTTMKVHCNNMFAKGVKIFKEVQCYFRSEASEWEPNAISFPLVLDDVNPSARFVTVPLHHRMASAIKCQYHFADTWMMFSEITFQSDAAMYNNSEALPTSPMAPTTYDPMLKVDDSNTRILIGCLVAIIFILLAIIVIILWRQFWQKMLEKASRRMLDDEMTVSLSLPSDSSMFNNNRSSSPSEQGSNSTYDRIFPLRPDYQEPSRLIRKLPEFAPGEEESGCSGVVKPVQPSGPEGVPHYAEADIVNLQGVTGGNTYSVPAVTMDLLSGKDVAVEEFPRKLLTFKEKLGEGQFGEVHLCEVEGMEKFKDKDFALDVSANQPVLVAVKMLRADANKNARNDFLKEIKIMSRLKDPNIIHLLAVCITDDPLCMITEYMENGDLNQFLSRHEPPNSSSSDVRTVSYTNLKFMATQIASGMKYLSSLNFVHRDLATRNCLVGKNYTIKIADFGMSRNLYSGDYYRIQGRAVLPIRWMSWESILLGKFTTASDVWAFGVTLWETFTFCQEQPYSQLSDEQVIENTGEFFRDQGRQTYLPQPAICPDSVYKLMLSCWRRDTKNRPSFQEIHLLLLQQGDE
Chain of DDR1 (Q08345 19-913): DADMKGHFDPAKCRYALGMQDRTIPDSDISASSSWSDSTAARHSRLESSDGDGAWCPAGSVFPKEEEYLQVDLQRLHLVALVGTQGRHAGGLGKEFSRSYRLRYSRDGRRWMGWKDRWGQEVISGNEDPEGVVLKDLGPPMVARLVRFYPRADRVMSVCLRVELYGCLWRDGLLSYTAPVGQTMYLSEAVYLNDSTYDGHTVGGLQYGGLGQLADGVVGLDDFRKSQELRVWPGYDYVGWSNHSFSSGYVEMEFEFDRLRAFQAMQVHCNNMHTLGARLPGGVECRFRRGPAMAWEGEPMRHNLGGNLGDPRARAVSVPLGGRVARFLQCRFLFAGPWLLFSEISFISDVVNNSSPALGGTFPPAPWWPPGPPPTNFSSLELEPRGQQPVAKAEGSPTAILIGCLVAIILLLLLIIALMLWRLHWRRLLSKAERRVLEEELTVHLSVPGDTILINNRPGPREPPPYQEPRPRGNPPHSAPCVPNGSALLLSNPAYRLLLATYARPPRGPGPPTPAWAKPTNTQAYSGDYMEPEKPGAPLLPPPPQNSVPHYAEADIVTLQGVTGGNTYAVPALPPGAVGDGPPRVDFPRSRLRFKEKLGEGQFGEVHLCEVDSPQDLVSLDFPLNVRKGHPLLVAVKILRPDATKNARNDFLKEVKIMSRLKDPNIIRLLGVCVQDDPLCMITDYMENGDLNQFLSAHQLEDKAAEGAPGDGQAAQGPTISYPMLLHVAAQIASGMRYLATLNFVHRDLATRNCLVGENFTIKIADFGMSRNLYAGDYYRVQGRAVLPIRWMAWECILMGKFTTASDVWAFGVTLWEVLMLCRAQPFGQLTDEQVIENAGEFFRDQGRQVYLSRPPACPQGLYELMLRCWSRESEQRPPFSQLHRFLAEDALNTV

With “4-methyl-3-((1-(pyrimidin-5-yl)azetidin-3-yl)thio)-N-(5-(trifluoromethyl)pyridin-3-yl)benzamide [Example 177]”, the Ki lay in the range of 25 to 100 nM on DDR2 (setting [1]) and 5 to 25 nM at DDR1 (setting [2]).
As to `Cc1ccc(C(=O)Nc2cncc(C(F)(F)F)c2)cc1NC1CN(C(=O)c2cnn3ccncc23)C1` [Compound C1, 4-methyl-3-((1-(pyrazolo[1,5-a]pyrazine-3-carbonyl)azetidin-3-yl)amino)-N-(5-(trifluoromethyl)pyridin-3-yl)benzamide, reference compound], the Ki on DDR2 (same binding assay, numeric values, read-out: DDR2 Ki) turned out to be 311 nM; at DDR1 (same binding assay, numeric values, read-out: DDR1 Ki), 114 nM.
Turning to `Cc1ccc(C(=O)Nc2cncc(C(F)(F)F)c2)cc1NC1CN(c2cncnc2)C1` [Example 134, 4-methyl-3-((1-(pyrimidin-5-yl)azetidin-3-yl)amino)-N-(5-(trifluoromethyl)pyridin-3-yl)benzamide], the inhibitory constant (Ki) on DDR2 (setting [1]) was 25 to 100 nM; on DDR1 (setting [2]) it was 5 to 25 nM.
On the same counts, the results for `Cc1ccc(C(=O)Nc2cncc(C(F)(F)F)c2)cc1OC1CN(c2cncnc2)C1` [Example 135, 4-methyl-3-((1-(pyrimidin-5-yl)azetidin-3-yl)oxy)-N-(5-(trifluoromethyl)pyridin-3-yl)benzamide] are 5 to 25 nM and below 5 nM.
On the same counts, the results for `Cc1ccc(C(=O)Nc2cncc(C(F)(F)F)c2)cc1OC1CN(c2cnn3ccncc23)C1` [Example 136, 4-methyl-3-((1-(pyrazolo[1,5-a]pyrazin-3-yl)azetidin-3-yl)oxy)-N-(5-(trifluoromethyl)pyridin-3-yl)benzamide] are below 5 nM and below 5 nM.
In the same order, the values of `Cc1ccc(C(=O)Nc2cncc(C(F)(F)F)c2)cc1OC1CN(c2cnc3ccccn23)C1` [Example 137, 3-((1-(imidazo[1,2-a]pyridin-3-yl)azetidin-3-yl)oxy)-4-methyl-N-(5-(trifluoromethyl)pyridin-3-yl)benzamide] are below 5 nM and below 5 nM.
With `CC(=O)Nc1ccn2ncc(N3CC(Oc4cc(C(=O)Nc5cncc(C(F)(F)F)c5)ccc4C)C3)c2n1` [Example 138, 3-((1-(5-acetamidopyrazolo[1,5-a]pyrimidin-3-yl)azetidin-3-yl)oxy)-4-methyl-N-(5-(trifluoromethyl)pyridin-3-yl)benzamide], the Ki was 5 to 25 nM at DDR2 (setting [1]) and below 5 nM on DDR1 (setting [2]).
As to `Cc1ccc(C(=O)Nc2cncc(C(F)(F)F)c2)cc1OC1CN(c2cncc(C(N)=O)c2)C1` [Example 139, 5-(3-(2-methyl-5-((5-(trifluoromethyl)pyridin-3-yl)carbamoyl)phenoxy)azetidin-1-yl)nicotinamide], the Ki on DDR2 (setting [1]) fell in the range of 5 to 25 nM.
For `Cc1ccc(C(=O)Nc2cncc(C(F)(F)F)c2)cc1NC1CN(c2cnn3ccncc23)C1` [Example 140, 4-methyl-3-((1-(pyrazolo[1,5-a]pyrazin-3-yl)azetidin-3-yl)amino)-N-(5-(trifluoromethyl)pyridin-3-yl)benzamide], the Ki on DDR2 (setting [1]) is 5 to 25 nM; at DDR1 (setting [2]), below 5 nM.
In the same order, the values of `CNc1ccn2ncc(N3CC(Oc4cc(C(=O)Nc5cncc(C(F)(F)F)c5)ccc4C)C3)c2n1` [Example 141, 4-methyl-3-((1-(5-(methylamino)pyrazolo[1,5-a]pyrimidin-3-yl)azetidin-3-yl)oxy)-N-(5-(trifluoromethyl)pyridin-3-yl)benzamide] are 5 to 25 nM and below 5 nM.
In the same order, the values of `Cc1ccc(C(=O)Nc2cncc(C(F)(F)F)c2)cc1OC1CN(c2cnn3cccnc23)C1` [Example 142, 4-methyl-3-((1-(pyrazolo[1,5-a]pyrimidin-3-yl)azetidin-3-yl)oxy)-N-(5-(trifluoromethyl)pyridin-3-yl)benzamide] are 5 to 25 nM and below 5 nM.
In the same order, the values of `Cc1ccc(C(=O)Nc2cncc(C(F)(F)F)c2)cc1OC1CN(c2cncc(-c3cnn(C)c3)c2)C1` [Example 143, 4-methyl-3-((1-(5-(1-methyl-1H-pyrazol-4-yl)pyridin-3-yl)azetidin-3-yl)oxy)-N-(5-(trifluoromethyl)pyridin-3-yl)benzamide] are below 5 nM and below 5 nM.
On to `Cc1ccc(C(=O)Nc2cncc(C(F)(F)F)c2)cc1NC1CN(c2cncc(-c3cnn(C)c3)c2)C1` [Example 144, 4-methyl-3-((1-(5-(1-methyl-1H-pyrazol-4-yl)pyridin-3-yl)azetidin-3-yl)amino)-N-(5-(trifluoromethyl)pyridin-3-yl)benzamide], for which the figures for the Ki at DDR2 (setting [1]) and on DDR1 (setting [2]) were 5 to 25 nM and below 5 nM, respectively.
For `CC(=O)Nc1cncc(N2CC(Oc3cc(C(=O)Nc4cncc(C(F)(F)F)c4)ccc3C)C2)c1` [Example 145, 3-((1-(5-acetamidopyridin-3-yl)azetidin-3-yl)oxy)-4-methyl-N-(5-(trifluoromethyl)pyridin-3-yl)benzamide], the Ki on DDR2 (setting [1]) and on DDR1 (setting [2]) was below 5 nM each time.
For `Cc1ccc(C(=O)Nc2cncc(C(F)(F)F)c2)cc1OC1CN(c2cnc3cnccn23)C1` [Example 146, 3-((1-(imidazo[1,2-a]pyrazin-3-yl)azetidin-3-yl)oxy)-4-methyl-N-(5-(trifluoromethyl)pyridin-3-yl)benzamide], the Ki on DDR2 (setting [1]) and on DDR1 (setting [2]) was below 5 nM throughout.
Turning to `Cc1ccc(C(=O)Nc2cncc(C(F)(F)F)c2)cc1NC1CN(c2cnc3cnccn23)C1` [Example 147, 3-((1-(imidazo[1,2-a]pyrazin-3-yl)azetidin-3-yl)amino)-4-methyl-N-(5-(trifluoromethyl)pyridin-3-yl)benzamide], the Ki on DDR2 (setting [1]) and at DDR1 (setting [2]) was below 5 nM each time.
For the compound `Cc1ccc(C(=O)Nc2cncc(C(F)(F)F)c2)cc1NC1CN(c2cnn3cccnc23)C1` [Example 148, 4-methyl-3-((1-(pyrazolo[1,5-a]pyrimidin-3-yl)azetidin-3-yl)amino)-N-(5-(trifluoromethyl)pyridin-3-yl)benzamide], the Ki on DDR2 (setting [1]) and at DDR1 (setting [2]) was 5 to 25 nM in each case.
For `Cc1ccc(C(=O)Nc2cc(C(C)(C)C)no2)cc1NC1CN(c2cnn3ccncc23)C1` [Example 149, N-(3-(tert-butyl)isoxazol-5-yl)-4-methyl-3-((1-(pyrazolo[1,5-a]pyrazin-3-yl)azetidin-3-yl)amino)benzamide], the Ki at DDR2 (setting [1]) and on DDR1 (setting [2]) was 5 to 25 nM each time.
Take `Cc1ccc(C(=O)Nc2cc(C(C)(C)C)on2)cc1NC1CN(c2cnn3ccncc23)C1` [Example 150, N-(5-(tert-butyl)isoxazol-3-yl)-4-methyl-3-((1-(pyrazolo[1,5-a]pyrazin-3-yl)azetidin-3-yl)amino)benzamide]: the Ki on DDR2 (setting [1]) was 25 to 100 nM; at DDR1 (setting [2]), 5 to 25 nM.
Regarding `Cc1ccc(C(=O)Nc2cncc(C(F)(F)F)c2)cc1N(C)C1CN(c2cnn3ccncc23)C1` [Example 151, 4-methyl-3-(methyl(1-(pyrazolo[1,5-a]pyrazin-3-yl)azetidin-3-yl)amino)-N-(5-(trifluoromethyl)pyridin-3-yl)benzamide], the Ki is 5 to 25 nM on DDR2 (setting [1]) and below 5 nM at DDR1 (setting [2]).
Consider `CCc1cc(NC(=O)c2ccc(C)c(OC3CN(c4cnn5ccncc45)C3)c2)no1` [Example 152, N-(5-ethylisoxazol-3-yl)-4-methyl-3-((1-(pyrazolo[1,5-a]pyrazin-3-yl)azetidin-3-yl)oxy)benzamide], for which the Ki at DDR2 (setting [1]) was in the range of 25 to 100 nM; at DDR1 (setting [2]) it was 5 to 25 nM.
On the same counts, the results for `COc1ccc(C(F)(F)F)cc1NC(=O)c1ccc(C)c(OC2CN(c3cnn4ccncc34)C2)c1` [Example 153, N-(2-methoxy-5-(trifluoromethyl)phenyl)-4-methyl-3-((1-(pyrazolo[1,5-a]pyrazin-3-yl)azetidin-3-yl)oxy)benzamide] are 5 to 25 nM and below 5 nM.
On the same counts, the results for `Cc1ccc(C(=O)Nc2cc(C(C)(C)C)n(C)n2)cc1OC1CN(c2cnn3ccncc23)C1` [Example 154, N-(5-(tert-butyl)-1-methyl-1H-pyrazol-3-yl)-4-methyl-3-((1-(pyrazolo[1,5-a]pyrazin-3-yl)azetidin-3-yl)oxy)benzamide] are below 5 nM and below 5 nM.
In the same order, the values of `Cc1ccc(C(=O)Nc2cc(C(C)(C)C)on2)cc1OC1CN(c2cnn3ccncc23)C1` [Example 155, N-(5-(tert-butyl)isoxazol-3-yl)-4-methyl-3-((1-(pyrazolo[1,5-a]pyrazin-3-yl)azetidin-3-yl)oxy)benzamide] are below 5 nM and below 5 nM.
For the compound `Cc1ccc(C(=O)Nc2cc(C(C)(C)C)n(C)n2)cc1NC1CN(c2cnn3ccncc23)C1` [Example 156, N-(5-(tert-butyl)-1-methyl-1H-pyrazol-3-yl)-4-methyl-3-((1-(pyrazolo[1,5-a]pyrazin-3-yl)azetidin-3-yl)amino)benzamide], the inhibitory constant (Ki) was 5 to 25 nM at DDR2 (setting [1]) and below 5 nM at DDR1 (setting [2]).
Take `Cc1ccc(C(=O)Nc2cncc(C(F)(F)F)c2)cc1C(C)C1CN(c2cnn3ccncc23)C1` (stereo not drawn) [Example 175, 4-methyl-3-(1-(1-(pyrazolo[1,5-a]pyrazin-3-yl)azetidin-3-yl)ethyl)-N-(5-(trifluoromethyl)pyridin-3-yl)benzamide]: the inhibition constant (Ki) on DDR2 (setting [1]) lay in the range of 5 to 25 nM.
Same read-out and setting: with `Cc1ccc(C(=O)Nc2cncc(C(F)(F)F)c2)cc1C(C)C1CN(c2cnn3ccncc23)C1` (stereo not drawn) [Example 176, 4-methyl-3-(1-(1-(pyrazolo[1,5-a]pyrazin-3-yl)azetidin-3-yl)ethyl)-N-(5-(trifluoromethyl)pyridin-3-yl)benzamide] the figure was 5 to 25 nM.

(Values after patent US20260028328A1, “HETEROARYL DERIVATIVES AS DDRs INHIBITORS” (CHIESI FARMACEUTICI S.P.A., priority 2022, published 2026).)
